Source: patent US10080748B2, “Use of flap inhibitors to reduce neuroinflammation mediated injury in the central nervous system” (Bioscience Pharma Partners, LLC, priority 2014, dated 2018)

Tests used:
[1] = tested on: rats subjected to FPI (TBI model); assay: Radial arms water maze (RAWM) after TBI (rat FPI); assay type: in vivo
Description: Craniotomy and lateral fluid percussion injury (FPI) were performed using a previously validated and published procedure. Farias S, et al. J. Neurotraum, 26, 1977-1986, 2009; Frey L. C. et al. J. Neurosci. Methods 177, 267-272, 2009. Throughout the specification animals subjected to this protocol are referred to as having a TBI since this treatment protocol is a TBI model. Briefly, rats were anesthetized with 3-5% isoflurane, isosol, VEDCO Inc., St. Joseph, Mo., via nose cone and mounted in a stereotaxic head frame. A 3 millimeter (mm) craniotomy was created and centered at 3 mm caudal to bregma and 3.5 mm left of the sagittal suture, keeping the exposed dura intact. One steel support screw was embedded in the skull on the contralateral side. A Luer-Lock hub with an inside diameter of 3.5 mm was centered over the craniotomy and bonded to the skull with cyanoacrylate adhesive and capped. Dental acrylic, Snap, Parka, Inc., Edgewood, N.J., was poured around the huh and screw. After the acrylic hardened antibiotic ointment was applied around the cap and the animals were returned to their cages. The next day, approximately 15-20 hours later, animals were anesthetized with isoflurane in an induction chamber, immediately connected to the FPI apparatus, and received a 20 millisecond (ms) pulse of pressurized sterile saline at 2.7 atmospheres (atm) of pressure to simulate a moderate severity impact on the intact dural surface through the craniotomy before awakening from anesthesia. […] All animals received a subcutaneous injection of the analgesic, buprenorphine, 0.05 milligram/kilogram (mg/kg) Buprenex, prior to craniotomy, and subsequent injections every 12 hours for two days. Moistened food pellets were provided after injury, and all animals were monitored daily for well-being and weight changes.
The indole FLAP inhibitor MK-886 was prepared at a dose of 2.5 milligram/milliliter (mg/ml), dissolved in dimethyl sulfoxide (DMSO) and then diluted with 0.9% saline to 10% DMSO. The rats were briefly anesthetized with 3-3.5% isoflurane and either […] at a dose of 6 mg/kg or vehicle was administered intravenously (IV) by tail vein injection. […]
The radial arms water maze (RAWM) consists of six 50 centimeter (cm) radial arms emanating from a circular area in a 160 cm diameter tank of 20.5° C. water, surrounded by 4 walls, each with a unique pattern. […] The start arm for each trial was determined in a pseudorandom fashion with three randomized sequences of the live non-goal arms. […] Videos for each of the 30 trials per animal were analyzed using Topscan (Cleversys Inc.) tracking software for errors and perseverance duration. […]
All data shown are mean+/−standard error of the mean unless otherwise noted. Results were analyzed in SPSS 20 (IBM) or Prism 5.0 (GraphPad). […]

[2] = tested on: rats subjected to FPI (TBI model); assay: T2-weighted MRI brain swelling (edema) 72 hours after TBI (rat FPI); assay type: in vivo
Description: Craniotomy and lateral fluid percussion injury (FPI) were performed using a previously validated and published procedure. Farias S, et al. J. Neurotraum, 26, 1977-1986, 2009; Frey L. C. et al. J. Neurosci. Methods 177, 267-272, 2009. Throughout the specification animals subjected to this protocol are referred to as having a TBI since this treatment protocol is a TBI model. Briefly, rats were anesthetized with 3-5% isoflurane, isosol, VEDCO Inc., St. Joseph, Mo., via nose cone and mounted in a stereotaxic head frame. A 3 millimeter (mm) craniotomy was created and centered at 3 mm caudal to bregma and 3.5 mm left of the sagittal suture, keeping the exposed dura intact. One steel support screw was embedded in the skull on the contralateral side. […] Moistened food pellets were provided after injury, and all animals were monitored daily for well-being and weight changes. […]
For each rat, five slices, 1.2 mm thick, spanning the entire area of injury were used to calculate FPI-related brain swelling. The diameter of the injured, ipsilateral hemisphere was measured from midline to the widest point of the cortex (Fiji/ImageJ, NIH). The difference between the ipsilateral (ipsi) and contralateral (contra) hemisphere diameters was then calculated and normalized to the diameter of the contralateral hemisphere using the formula: {(diameter Ipsi−diameter Contra)/diameter Contra}×100 […]

`CC(C)c1ccc2c(c1)c(SC(C)(C)C)c(CC(C)(C)C(=O)O)n2Cc1ccc(Cl)cc1` [MK-886, 1-[(4-Chlorophenyl)methyl]-3-[(1,1-dimethylethyl)thio]-α,α-dimethyl-5-(1-methylethyl)-1H-Indole-2-propanoic acid] was tested, and the “initial task learning versus vehicle” value ([1]; Day 1, 15 swim trials, within sham group or within TBI group) was “no significant differences”, the “errors per swim, last five swim trials of the reversal task” value ([1]; TBI animals, injection 30 minutes post-injury, Day 2) was 1.26+/−0.700 and the “perseverance for the previous goal arm, swim 1 to swim 3 of reversal task” value ([1]; TBI rats, injection 30 minutes post-injury, Day 2) was “spent less time in the previous goal arm by swim 3”. For the same compound, the “errors per swim, last five swim trials of the reversal task” value ([1]; sham animals, injection 30 minutes post-injury, Day 2) was 0.850+/−0.583, the normalized brain swelling ([2]; 30 minutes pre-TBI) was 4.12+/−0.08% and the normalized brain swelling ([2]; 60 minutes post-TBI) was 8.98+/−1.0%.
